The structures appear in SMILES notation.

The values that follow come from patent US5214153A, “Actinoplanes transformation process anti-hypertensive compound and method of use thereas” (Merck & Co., Inc., priority 1992, dated 1993).

The assay deals with T1, Angiotensin II (A II) receptor (Oryctolagus cuniculus, UniProt P34976).
T1 construct: 125I-Sar1Ile8-angiotensin II displacement
T1 sequence (P34976 1-359): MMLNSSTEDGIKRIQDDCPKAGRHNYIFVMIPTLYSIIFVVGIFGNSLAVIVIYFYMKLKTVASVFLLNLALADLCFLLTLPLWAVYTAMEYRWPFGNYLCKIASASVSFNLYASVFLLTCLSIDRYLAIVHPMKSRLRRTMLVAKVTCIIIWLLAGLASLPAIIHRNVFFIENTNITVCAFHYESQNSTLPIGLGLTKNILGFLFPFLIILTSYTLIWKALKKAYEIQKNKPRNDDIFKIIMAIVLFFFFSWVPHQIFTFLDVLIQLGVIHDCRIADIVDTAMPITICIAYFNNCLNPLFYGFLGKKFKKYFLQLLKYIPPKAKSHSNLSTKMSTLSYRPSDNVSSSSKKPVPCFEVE
The experiment in a line: Receptor Binding Assay Using Rabbit Aortae Membrane Preparation ("IC50" assay). How it is done:
This assay is also referred to herein as the "IC50 " assay.
Receptor Binding Assay Using Rabbit Aortae Membrane Preparation
Three frozen rabbit aortae (obtained from Pel-Freeze Biologicals) were suspended in 5 mM Tris-0.25M Sucrose, pH 7.4 buffer (50 mL) homogenized, and then centrifuged. The mixture was filtered through a cheesecloth and the supernatant was centrifuged for 30 minutes at 20,000 rpm at 4° C. The pellet thus obtained was resuspended in 30 mL of 50 mM Tris-5 mM MgCl2 buffer containing 0.2% Bovine Serum Albumin and 0.2 mg/mL Bacitratin and the suspension was used for 100 assay tubes. Samples tested for screening were done in duplicate. To the membrane preparation (0.25 mL) there was added ^125 I-Sar^1 Ile^8 -angiotensin II [obtained from New England Nuclear] (10 uL; 20,000 cpm) with or without the test sample and the mixture was incubated at 37° C. for 90 minutes. The mixture was then diluted with ice-cold 50 mM Tris-0.9% NaCl, pH 7.4 (4 mL) and filtered through a glass fiber filter (GF/B Whatman 2.4" diameter). The filter was soaked in scintillation cocktail (10 mL) and counted for radioactivity using Packard 2660 Tricarb liquid scintillation counter. […]

On to `CC(O)CCc1nc(Cl)c(CO)n1Cc1ccc(-c2ccccc2-c2nnn[nH]2)cc1` (stereo not shown) [compound (I)], for which the “A II antagonist activity by the IC50 assay” value is reported as “exhibits A II antagonist activity”.
